≈ marks a conversion by molar mass, not a printed value. Calls of active or inactive are those of the source. The rule behind the calls is not given here.
What was measured:
[1] = Intrinsic clearance in mouse liver microsomes at 1 uM in presence of NADPH generating system assessed per mg protein by LC-MS/MS analysis; format: ADME, Microsome; details: read-out: CLH
[2] = target: T1, Ceramide glucosyltransferase (Homo sapiens, UniProt Q16739); assay: Inhibition of human GCS using C8-ceramide and UDP-glucose as substrate incubated for 1 hr by RapidFire mass spectrometry
T1 sequence (Q16739 whole entry): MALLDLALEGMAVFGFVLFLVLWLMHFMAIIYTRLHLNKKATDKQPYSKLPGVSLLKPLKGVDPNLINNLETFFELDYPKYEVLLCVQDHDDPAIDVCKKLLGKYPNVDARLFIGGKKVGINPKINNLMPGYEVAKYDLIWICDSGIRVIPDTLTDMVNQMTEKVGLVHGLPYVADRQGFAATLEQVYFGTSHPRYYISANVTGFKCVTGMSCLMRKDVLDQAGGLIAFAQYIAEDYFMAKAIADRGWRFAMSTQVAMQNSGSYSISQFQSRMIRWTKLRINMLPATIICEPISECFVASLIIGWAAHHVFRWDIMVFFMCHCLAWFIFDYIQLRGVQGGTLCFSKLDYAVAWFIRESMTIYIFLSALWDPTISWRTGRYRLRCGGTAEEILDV

[3] = Efflux ratio of apparent permeability from basolateral to apical side over apical to basolateral side in dog MDCK-MDR1 cells at 1 uM measured after 1 hr by LC-MS/MS analysis; format: ADME, cell-based, Canis lupus familiaris
[4] = 1-Octanol/aqueous buffer partition coefficient, logD of the compound at pH 7.4 by chromatographic method; format: physicochemical
hERG = hERG (Homo sapiens, UniProt Q12809); assay: Inhibition of hERG expressed in CHO-K1 cells at 10 uM incubated for 5 mins by whole cell-automated voltage clamp analysis; format: toxicity, cell-based; details: CHO-K1 cells expressing hERG
[5] = Kinetic solubility of the compound in JP2 fluid at pH 6.8 by precipitation method; format: physicochemical; details: read-out: Kinetic_solubility
[6] = target: T2, Ceramide glucosyltransferase (Homo sapiens) (UniProt Q16739); assay: Uncompetitive inhibition of GCS (unknown origin) using 1 to 70 uM C8-ceramide and 0.1 to 200 uM UDP-glucose as substrate incubated for 1 hr by RapidFire mass spectrometry
T2 sequence (whole entry): T1 sequence (Q16739 whole entry)

Chain of hERG (Q12809 whole entry): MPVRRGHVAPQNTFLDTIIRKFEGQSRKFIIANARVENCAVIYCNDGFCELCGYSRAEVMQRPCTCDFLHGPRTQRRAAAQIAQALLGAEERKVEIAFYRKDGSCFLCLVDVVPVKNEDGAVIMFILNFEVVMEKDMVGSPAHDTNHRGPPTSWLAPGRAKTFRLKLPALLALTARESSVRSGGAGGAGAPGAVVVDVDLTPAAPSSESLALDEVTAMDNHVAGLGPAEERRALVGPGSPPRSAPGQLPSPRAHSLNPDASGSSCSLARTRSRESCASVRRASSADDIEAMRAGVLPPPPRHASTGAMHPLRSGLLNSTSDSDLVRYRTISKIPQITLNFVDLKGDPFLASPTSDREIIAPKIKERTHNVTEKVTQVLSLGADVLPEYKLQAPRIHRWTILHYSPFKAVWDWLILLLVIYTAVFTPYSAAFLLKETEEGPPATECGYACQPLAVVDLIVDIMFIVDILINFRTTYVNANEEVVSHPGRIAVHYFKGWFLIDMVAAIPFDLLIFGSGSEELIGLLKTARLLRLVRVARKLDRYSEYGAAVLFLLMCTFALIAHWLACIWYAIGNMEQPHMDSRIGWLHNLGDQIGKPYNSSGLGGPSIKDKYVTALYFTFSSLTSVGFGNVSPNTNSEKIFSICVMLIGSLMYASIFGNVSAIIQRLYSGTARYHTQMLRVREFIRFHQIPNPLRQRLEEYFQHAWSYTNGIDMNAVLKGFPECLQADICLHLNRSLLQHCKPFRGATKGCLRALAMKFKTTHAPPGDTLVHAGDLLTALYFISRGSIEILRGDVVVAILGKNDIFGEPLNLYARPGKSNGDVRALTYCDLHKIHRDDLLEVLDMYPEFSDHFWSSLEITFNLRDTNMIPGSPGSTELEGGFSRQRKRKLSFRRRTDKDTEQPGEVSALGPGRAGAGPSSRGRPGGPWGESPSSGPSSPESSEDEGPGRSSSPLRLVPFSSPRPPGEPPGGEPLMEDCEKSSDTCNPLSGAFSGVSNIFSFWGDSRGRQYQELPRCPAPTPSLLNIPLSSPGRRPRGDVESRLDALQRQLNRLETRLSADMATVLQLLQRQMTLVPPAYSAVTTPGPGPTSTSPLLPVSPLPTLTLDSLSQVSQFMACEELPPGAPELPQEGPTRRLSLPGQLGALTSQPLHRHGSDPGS

SMILES | microsomal CLint at 1 µM [1] [µL/min/mg] | IC50 [2] [µM] | efflux ratio at 1 h, 1 µM [3] | chromatographic logD [4] | inhibition at 5 min, 10 µM (hERG) [%] | solubility kinetic [5] [µg/mL] | inhibition [6]
O=C1c2ccnc(-c3ccccc3)c2CN1c1ccccc1 | > 768 | > 100 |  |  |  |  | 
CS(=O)(=O)c1ccc(N2Cc3c(ccnc3-c3ccc(F)cc3OCC(F)(F)F)C2=O)cc1 |  | 0.63 | 32 | 1.86 | 23.7 |  | 
COc1ccccc1-c1nccc2c1CN(c1ccc(F)cc1)C2=O | 509 | 1 |  |  |  |  | 
CC(C)(O)c1ccc(NC(=O)c2cccn(-c3ccccc3OCC(F)(F)F)c2=O)cc1 |  | 0.019 | 15 | 2.12 |  |  | 
COc1ccccc1-c1ccc2c(c1)CN(c1ccccc1)C2=O |  | > 100 |  |  |  |  | 
COc1ccccc1-c1ccnc2c1CN(c1ccccc1)C2=O |  | 17 |  | 2.81 |  | 4 (≈ 12.6 µM) | 
COc1ccccc1-c1nccc2c1CN(c1ccc(C)cc1)C2=O | > 768 | 0.097 |  |  |  |  | 
COc1ccccc1-n1ncc2c1CN(c1ccccc1)C2=O |  | 4.4 |  | 2.45 |  | 22 (≈ 72.1 µM) | 
O=C1c2ccnc(-c3ccc(F)cc3OC(F)(F)F)c2CN1c1ccc(F)cc1 | 14 | 0.049 | 2.6 | 3 | 51.4 | < 0.15 | 
CC(C)(O)c1ccc(NC(=O)c2cccc(-c3ccccc3OCC(F)(F)F)n2)cc1 |  | 0.17 | 2.2 | 3.6 |  |  | 
CC(C)(O)c1ccc(NC(=O)c2ccnn(-c3ccc(F)cc3OCC(F)(F)F)c2=O)cc1 |  | 0.049 | 6.6 | 2.55 |  |  | 
COc1ccccc1-c1nccc2c1CN(C1CCCCC1)C2=O | 727 | > 100 |  |  |  |  | 
COc1ccccc1-c1cccc2c1CN(c1ccccc1)C2=O |  | 2.4 |  | 3.87 |  | < 0.1 | 
COc1ccccc1-c1nccc2c1CN(c1cccc(C)c1)C2=O | 584 | 4.4 |  |  |  |  | 
CCCCCCCC(=O)N[C@H](CN1CCCC1)[C@H](O)c1ccc2c(c1)OCCO2 |  |  |  |  |  |  | Active
CC(C)(O)COc1ccc(N2Cc3c(ccnc3-c3ccc(F)cc3OCC(F)(F)F)C2=O)cc1 |  | 0.04 | 7.3 | 2.67 | 17.6 |  | 
COc1ccccc1-c1nccc2c1CN(c1ccccc1C)C2=O | 560 | > 100 |  |  |  |  | 
COc1cccc(-c2nccc3c2CN(c2ccccc2)C3=O)c1 | > 768 | > 100 |  |  |  |  | 
CC(C)(C#N)c1ccc(N2Cc3c(ccnc3-c3ccc(F)cc3OCC(F)(F)F)C2=O)cc1 |  | 0.017 | 4 | 2.86 | 39.4 |  | 
CC(C)(O)c1ccc(NC(=O)c2cccc(-c3ccccc3OCC(F)(F)F)c2F)cc1 |  | 0.045 | 1.9 | 3.06 |  |  | 
COc1ccccc1-c1cncc2c1CN(c1ccccc1)C2=O |  | 1.3 |  | 2.94 |  | 0.9 (≈ 2.84 µM) | 
CN(C)C(=O)c1ccc(N2Cc3c(ccnc3-c3ccc(F)cc3OCC(F)(F)F)C2=O)cc1 |  | 0.7 | 35 | 1.99 | 41.8 |  | 
CC(C)(O)c1ccc(NC(=O)c2cccc(-c3ccccc3OCC(F)(F)F)c2)cc1 |  | 3.2 | 3 | 3.16 |  |  | 
COc1cc(F)ccc1-c1nccc2c1CN(c1ccc(F)cc1)C2=O | 131 | 4.9 |  |  |  |  | 
COc1ccccc1-c1nccc2c1CN(c1ccccc1)C2=O | > 768 | 1.9 |  | 2.84 |  | 18 (≈ 56.9 µM) | 

— ChEMBL document CHEMBL5046282, “Discovery of Brain-Penetrant Glucosylceramide Synthase Inhibitors with a Novel Pharmacophore” (J Med Chem, 2022)
